The values that follow come from the RepoRT retention time repository.

Structures are written as SMILES.

The nature of the data set: Agilent ZORBAX 300 SB-C18, 150 × 1 mm, 3.5 µm; A: water + 0.01% heptafluorobutyric acid; B: acetonitrile + 0.01% heptafluorobutyric acid; gradient (min/%B) 0/0 100/90. As to conditions: stereoisomer not certain.
For `Cc1ccc(N)cc1`, the LC retention time stood at 7.62 min.
The same measure for `CC(C)(C=O)CN1CCCC1`: 6.76 min; for `CCOC(=O)c1ccc2[nH]c3c(c2c1)CCCC3C(=O)OCC` (stereo not drawn): 16.2 min.
As for `CC(C)c1ccc(CC(NC(=O)c2ccccc2)C(=O)NCC(=O)O)cc1` (stereo not drawn), the figure is 12.5 min; as for `Cc1nc2ccccc2nc1CSc1cccc2cccnc12`, 12.8 min.
As for `CCNCCN(C)C`, the figure is 7.47 min; as for `c1nc2cc3ncc[nH]c3cc2n1`, 7.13 min.
With `S=c1[nH]c2ccccc2c2c1CCC2`, the LC retention time came out at 12.1 min.
Turning to `CN(C)C(=O)C1OC(C)(C)OC1C(=O)N(C)C` (stereo not drawn), the LC retention time was 8.25 min.
As for `Cc1cc(N)cc(C)c1O`, the LC retention time turned out to be 6.91 min.
As to `CCCCCCN1CNC(=S)NC1`, the LC retention time turned out to be 9.89 min.
The same measure for `COc1ccc2c(c1)C(C)CC(C)(C)N2` (stereo not drawn): 9.43 min; for `c1ccn(-c2ccc3cn[nH]c3c2)c1`: 11.8 min; for `CN(C)c1ccc(C=NNC(=O)c2cccc(N)c2)cc1`: 9.41 min.
For the compound `Cc1nc2ccccc2[nH]1`, the LC retention time is 7.36 min.
In the case of `CNC(C)=O`, the LC retention time was determined as 2.1 min.
As for `Cc1cc(C=O)c(C)n1C1CCCCC1`, the figure is 14.4 min; as for `c1ccc2c(Sc3nccc4ccccc34)nccc2c1`, 14.4 min; as for `CC(C)N1CCNCC1`, 6.94 min.
For the compound `CCOC(=O)C(N)CCCN=C(N)N` (stereo not drawn), the LC retention time turned out to be 7.25 min.
Take `CCSc1cccc2cccnc12`: the LC retention time was 11.7 min.
The same measure for `CC(Nc1ccc2ccccc2c1)C(=O)NN=Cc1cccc2ccccc12` (stereo not drawn): 16.7 min; for `c1ccc(Cn2c3ccccc3c3ccccc32)cc1`: 18.8 min.
As for `COc1cc(N)c(N2CCOCC2)cc1OC`, the figure is 7.99 min.
For the compound `Oc1ccc2c(c1)C13CCCCC1(O)C(C2)NCC3` (stereo not drawn), the LC retention time worked out at 8.57 min.
With `Cc1ccc(NC(=O)C=CC(=O)O)c(C)c1`, the LC retention time came to 10.8 min.
As for `CN1CCCN=C1C=Cc1cccs1`, the LC retention time was 8.55 min.
The same measure for `CN1C(=O)C(CC(=O)NC2CCCCC2)N(C)C1=O` (stereo not drawn): 8.55 min; for `CCCNCc1ccc2c(c1)n(C)c(=O)n2C`: 7.81 min.
As for `CCCCC(CC)CNCC(CC)CCCC` (stereo not drawn), the figure is 14.2 min.
Take `CCC(N)=O`: the LC retention time turned out to be 2.3 min.
Turning to `COC(=O)c1ccccc1NCc1ccccc1CNc1ccccc1C(=O)OC`, the LC retention time stood at 20.7 min.
With `CC(NC(=O)c1ccc(CN2CCc3ccccc3C2)cc1)c1ccccc1` (stereo not drawn), the LC retention time was 10.5 min.
As for `CN1C(=O)C(CCC(N)=O)NC1=S` (stereo not drawn), the figure is 6.53 min.
On to `Nc1ncnc2[nH]ncc12`, for which the LC retention time was found to be 5.98 min.
Consider `Cc1nnc(NN=Cc2ccc(N(C)C)cc2)[nH]c1=O`, for which the LC retention time worked out at 9.86 min.
As to `CN1CCCCC1`, the LC retention time was 6.61 min.
The same measure for `CC(=O)C(=C1NC(C)(C)Cc2cc(C)c(C)cc21)c1ccccc1`: 17.6 min; for `Cn1c(=S)[nH]c2ccccc21`: 9.31 min.
The same measure for `CC(O)CCN` (stereo not drawn): 3.82 min.
The same measure for `CC1(C)CC(N)CC(C)(CN)C1` (stereo not drawn): 7.39 min.
As to `O=C(NN=CC=NNC(=O)c1ccccn1)c1ccccn1`, the LC retention time amounted to 8.62 min.
`O=C(NCc1ccncc1)c1ccc(-c2ccccc2)cc1`: the LC retention time worked out at 10.2 min.
As for `CC1=NC(=Cc2ccccc2)C(=O)O1`, the figure is 9.16 min; as for `CN(C)c1ccncc1N`, 7.03 min; as for `Cc1cc(C)nc(Nc2ccccc2C)n1`, 10.7 min.
`COc1cccc(C=NNC(=O)c2ccccc2)c1OC`: the LC retention time worked out at 11.7 min.
The same measure for `c1ccc(Nc2ncnc3nc[nH]c23)cc1`: 8.8 min.
As to `CCN(CC)CC(=O)Nc1c(C)cccc1C`, the LC retention time is 9.19 min.
As for `C(=Cc1ccco1)C=NN1CCN(Cc2cccc3ccccc23)CC1`, the figure is 11.2 min; as for `COC(=O)Cn1c(C)cc(C)c(N)c1=O`, 7.8 min; as for `CN1CCC2(CC1)NC(=O)N(c1ccccc1)N2`, 7.95 min.
The same measure for `CNc1cnccn1`: 6.32 min.
In the case of `CC(=O)NC(C)c1ccc(O)cc1` (stereo not drawn), the LC retention time came out at 7.19 min.
The same measure for `O=CC1CCN(Cc2ccccc2)CC1`: 7.84 min; for `CCCCNCC`: 7.1 min; for `Cc1nc2ccccc2nc1CN1C(=O)C2CC=CCC2C1=O` (stereo not drawn): 11.9 min.
As for `CC1(C)CC(NC(=O)c2ccccc2C(=O)NC2CC(C)(C)NC(C)(C)C2)CC(C)(C)N1`, the figure is 7.61 min; as for `CCCCCCCCN1C2=C(C(=O)CC(C)(C)C2)C(c2ccccc2)C2=C1CC(C)(C)CC2=O`, 20.9 min.
The same measure for `Cc1ccc(CNC(=S)Nc2ccccc2)n1C`: 13.1 min.
Regarding `COc1ccc(N2C(=O)C=CC2=O)cc1`, the LC retention time is 9.62 min.
As for `O=S(=O)(O)CCNC1CCCCC1`, the figure is 5.78 min; as for `COC(=O)c1nnc(-c2ccccc2)c(-c2ccccc2)n1`, 13.6 min.
As for `CCCCCC[N+](C)(C)C`, the figure is 8.47 min.
As for `CNC(C)C(=O)c1ccccc1` (stereo not drawn), the figure is 8.4 min.
Turning to `CCC(C)N1CNc2c(c(=O)[nH]c(=O)n2-c2ccc(C)c(C)c2)C1` (stereo not drawn), the LC retention time came to 8.26 min.
Take `COc1ccc2nc(C)c3c(c2c1)OC(C)C3` (stereo not drawn): the LC retention time amounted to 9.25 min.
As to `Cc1cn(C2CC(O)C(CO)O2)c(=O)[nH]c1=O` (stereo not drawn), the LC retention time came to 8.97 min.
The same measure for `Nc1ccccc1C(=O)N1CCc2ccccc21`: 12.4 min.
For `Cc1ccc2cc(C(=O)O)c(=O)[nH]c2c1`, the LC retention time was found to be 9.64 min.
The same measure for `O=C(CNc1cccc2ccccc12)NN=CC=Cc1ccccc1`: 15.5 min.
The same measure for `CCOC(=O)C=CC(=O)NCCC1=CCCCC1`: 13.8 min; for `N=c1c2c3c(sc2ncn1N)CCC3`: 8.21 min.
As for `CSC1=NC(C)(C)Cc2c(C)cccc21`, the figure is 9.67 min.
As for `C#CCN(CCCC)CCCC`, the LC retention time was determined as 9.04 min.
For `CC(CCc1ccc(O)cc1)NCC(O)c1ccc(O)cc1` (stereo not drawn), the LC retention time was 8.93 min.
Regarding `CCCC[N+](CCCC)(CCCC)CCCC`, the LC retention time turned out to be 13.2 min.
The same measure for `CCCCCCCCCCn1c(CCC)nc2ccccc21`: 15.6 min; for `COc1ccc2c3c1OC1C(=O)CCC4(O)C(C2)N(C)CCC314` (stereo not drawn): 8.39 min.
Consider `CCCN1CCCCC1C(=O)Nc1c(C)cccc1C` (stereo not drawn), for which the LC retention time is 9.88 min.
As for `NC1C(=O)Nc2ccccc21` (stereo not drawn), the figure is 7.8 min.
The same measure for `CC(C)C(N)C(=O)O` (stereo not drawn): 2.86 min; for `CC(C)Nc1ccccc1`: 8.04 min.
`COC(=O)CN1CCCC1=O`: the LC retention time worked out at 6.91 min.
Consider `CCCNC(C)C(=O)Nc1c(C)csc1C(=O)OC` (stereo not drawn), for which the LC retention time amounted to 9.27 min.
The same measure for `Cc1cccc(Oc2cc(C)nc3ccc(C)cc23)c1`: 11.8 min; for `O=C(C=Cc1ccccc1)c1cc(O)ccc1O`: 12.5 min; for `CN(C)CCNC1=CC(=O)CC(C)(C)C1`: 7.29 min.
For the compound `NC1=NC(=Nc2ccc(N3CCOCC3)cc2)c2ccccc21`, the LC retention time was 9.27 min.
In the case of `O=C1CCNc2ccc(-c3ccccc3)cc21`, the LC retention time came out at 13.1 min.
With `CCOc1cc(C(=O)N(CC)c2ccccc2)cc(OCC)c1OCC`, the LC retention time was determined as 15.9 min.
Take `CN(C(=O)CCCN1C(=O)c2ccccc2C1=O)C1CC(C)(C)N(C)C(C)(C)C1`: the LC retention time was found to be 9.02 min.
Regarding `Cc1nnc(N)[nH]c1=O`, the LC retention time turned out to be 2.72 min.
In the case of `O=c1c2ccccc2nc(-c2ccccc2)n1-c1ccccc1`, the LC retention time amounted to 13.8 min.
As for `COC(=O)Cn1c2c(c3ccccc31)CCCC2`, the figure is 16.2 min; as for `CCCCN1CNC(=S)NC1`, 7.45 min; as for `CCN(Cc1ccncc1)C(=S)Nc1ccccc1`, 8.91 min.
As to `Cc1cc(C(=O)O)c(C)n1CCc1c[nH]c2ccccc12`, the LC retention time amounted to 12.5 min.
In the case of `Cn1c(=O)[nH]cc(CC(=O)O)c1=O`, the LC retention time came to 5.4 min.
As for `CCCC(CCC)C(=O)NC1CCN(Cc2ccccc2)CC1`, the LC retention time was found to be 10.2 min.
As for `O=C1C(=Cc2ccco2)C(=O)c2ccccc21`, the figure is 14 min; as for `Nc1ccc2c(c1)COC2=O`, 7.27 min.
Turning to `CN1c2ccccc2CCc2cc(C=O)ccc21`, the LC retention time amounted to 16.3 min.
`Cc1ccc(CNC2CCCC2)o1`: the LC retention time was 8.53 min.
The same measure for `NCC1(O)CCCCC1`: 7.06 min; for `Cc1ccccc1N1C(=O)c2ccc(C(=O)O)cc2C1=O`: 12 min.
Consider `NNC(=S)Nc1ccccc1`, for which the LC retention time worked out at 8.31 min.
The same measure for `CC(C=Cc1ccccc1)=NNC(=O)C(C)Nc1ccc2ccccc2c1` (stereo not drawn): 16.2 min; for `O=C(O)CNC(=O)c1ccccc1`: 7.38 min; for `CC(C)NCC(O)COc1cccc2[nH]ccc12` (stereo not drawn): 8.75 min.
The same measure for `O=C(C=Cc1ccccc1O)c1ccccc1O`: 14.5 min; for `Cc1c[n+](C)c(C)cc1-c1ccccc1`: 9.13 min.
As for `CC(=O)Oc1cccc(C(=O)NN2C(=O)c3ccccc3C2=O)c1`, the LC retention time is 11.1 min.
